Measured values reported in US8623400B2, “Drug-carrying contact lens and method for fabricating the same” (National Chiao Tung University, priority 2011, dated 2014).

Experiment: Drug-release test of drug-carrying contact lenses
Type: physicochemical
Source text: The drug-release tests are respectively performed on the first encapsulation-type drug-carrying contact lens and the drug-soaking type contact lens of the present invention to understand the drug-release thereof.
In one embodiment, the encapsulation-type drug-carrying contact lens adopts a hydrophobic antibiotic—Azithromycin, which is an oral azalide group antibiotic that is a subgroup of macrolides, and which is a broad-spectrum antibiotic effective to Gram-positive bacteria, Gram-negative bacteria, anaerobic bacteria, Chlamydia, helicoids, etc. […] Such a phenomenon may be attributed to the fact: the higher the temperature, the higher the oscillation frequency of the drug molecules, and the greater the quantity of the drug molecules diffusing out. In the present invention, the drug-release amount can be quantitively controlled according to the application environment. Therefore, the present invention has a potential to realize a customized drug-carrying contact lens.
In one embodiment, the drug-soaking type drug-carrying contact lens adopts Vitamin B12, which is a hydrophilic drug and effective to pernicious anaemia, and which is a red crystalline powder likely to absorb humidity, easy to dissolve in water and alcohol, and slightly unstable in the environment of light, strong acid, and base. […] Such a phenomenon is attributed to the fact that the greater the concentration difference, the higher the driving force of drug molecule diffusion.

Compound | release of Vitamin B12 versus drug-carrying contact lens free of drug carriers (drug-soaking type drug-carrying contact lens containing the drug carriers, FIG. 7(a)) | drug-release rate with respect to drug concentration (drug-soaking type drug-carrying contact lens, different concentrations of Vitamin B12, FIG. 7(b)) | release quantity of Azithromycin with respect to temperature (encapsulation-type drug-carrying contact lens, FIG. 6)
Vitamin B12 | more slowly | increases with the concentration of the drug molecules | –
CC[C@H]1OC(=O)[C@H](C)[C@@H](O[C@H]2C[C@@](C)(OC)[C@@H](O)[C@H](C)O2)[C@H](C)[C@@H](O[C@@H]2O[C@H](C)C[C@H](N(C)C)[C@H]2O)[C@](C)(O)C[C@@H](C)CN(C)[C@H](C)[C@@H](O)[C@]1(C)O [Azithromycin] | – | – | increases with the temperature
